In this assay the target is T1, human renin (Homo sapiens, UniProt P00797).
T1 construct: angiotensin-I released from human renin substrate by human resin in human plasma; from tissue; host or cells: human plasma (containing EDTA)
T1 sequence (P00797 67-406): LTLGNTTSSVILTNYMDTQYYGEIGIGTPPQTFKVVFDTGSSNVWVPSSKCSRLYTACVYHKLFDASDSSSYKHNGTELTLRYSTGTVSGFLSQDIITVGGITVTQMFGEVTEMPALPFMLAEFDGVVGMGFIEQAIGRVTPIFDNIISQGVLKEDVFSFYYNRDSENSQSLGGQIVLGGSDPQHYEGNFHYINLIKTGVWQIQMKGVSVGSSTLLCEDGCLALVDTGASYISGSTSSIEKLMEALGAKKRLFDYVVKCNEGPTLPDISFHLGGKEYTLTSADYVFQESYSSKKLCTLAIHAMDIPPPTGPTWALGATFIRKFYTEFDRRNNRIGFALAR
As to the kind of experiment: human renin-renin substrate reaction in vitro; radioimmunoassay of angiotensin-I released in human plasma. As to conditions: for pIC50: Table 5, human renin-renin substrate reaction in vitro, read-out: IC50. Format: biochemical. The source says: Preliminary activity test results in the human […] substrate reaction in vitro are given, with comparative figures for the tetrapeptide analogue (III). […] The test results given herein are based on the methods described by J. A. Miller et al in Clinica Chimica Acta (1980) 101 5-15 and K. Poulsen and J. Jorgensen in J. Clin. Endocrinol. Metab. (1974) 39 816, and is based on the measurement, by radioimmunoassay, of angiotensin-I released from human renin substrate by human resin in human plasma. The inhibitor is dissolved in 0.01N HCl (10 μl) and added to hmman plasma (75 μl) containing EDTA, and angiotensin-I antibody (15 μl) in 3M-Tris/HCl buffer (pH 6.9). After incubation at 37° C. for 0-120 minutes, the enzymic reaction is quenched by the addition of ice-cold 0.25M Tris/HCl buffer (pH 7.4) containing 0.01% of bovine serum albumin. 125I-labelled angiotensin-I is added, followed by equilibration at 4° C. for 48 hours. Free and bound ligand are separated by the addition of dextrancoated charcoal, and the amount of bound radio-ligand determined in a gamma counter.

[1] abbreviates: Table 2, read-out: IC50 μM v/s human renin.
Setting [2] is: Table I, human renin in human plasma, read-out: IC50, μM human.

Structures are written as SMILES. pIC50: −log10 of the molar value. Like-named read-outs stand apart in the source and are kept apart here. *1 amine or outer side, *2 acyl side, *3 side chain or, on linkers, in order; H or OH if unused. Where a SMILES comes first, the peptide text is derived from it. [ ]: non-standard residue; d: D form. The star is where a group is joined. X3 = CC[C@H](C)[C@H](NC(=O)[C@@H](NC[C@H](CC(C)C)N*)C(C)C)C(=O)N[C@@H](Cc1ccc(O)cc1)C(=O)O; X1 = CC(C)C[C@H](N[*:1])[C@@H](O)C[C@H](C(=O)[*:2])C(C)C; X4 = CC(C)C[C@H](N[*:1])[C@@H](O)CCC(=O)[*:2]; Boc = CC(C)(C)OC(=O)*

In the case of `CC[C@H](C)[C@H](NC(=O)[C@@H](C[C@H](O)[C@H](CC(C)C)NC(=O)[C@H](Cc1c[nH]cn1)NC(=O)[C@H](Cc1ccccc1)NC(=O)OC(C)(C)C)C(C)C)C(=O)N[C@@H](Cc1ccccc1)C(=O)OC` [XLIX] (Boc-FH[X1]IF-OMe), the IC50 under setting [1] was 0.018 µM.

With `CC[C@H](C)[C@H](NC(=O)[C@@H](NC[C@H](CC(C)C)NC(=O)[C@H](Cc1c[nH]cn1)NC(=O)[C@H](Cc1ccccc1)NC(=O)[C@@H]1CCCN1C(=O)[C@@H](Cc1c[nH]cn1)NC(=O)[C@@H]1CCCN1)C(C)C)C(=O)N[C@@H](Cc1c[nH]cn1)C(=O)N[C@H](CCCCN)C(=O)O` [Example XL], the IC50 under setting [2] came out at 0.2 µM.

The term pIC50 denotes the negative decadic logarithm of the IC50, by convention in mol/L. Consider `CC(C)C[C@@H](CN[C@H](C(=O)N[C@H](C(=O)N[C@@H](Cc1ccc(O)cc1)C(=O)O)C(C)C)C(C)C)NC(=O)[C@H](Cc1c[nH]cn1)NC(=O)[C@H](Cc1ccccc1)NC(=O)[C@@H]1CCCN1C(=O)[C@@H](N)Cc1c[nH]cn1` [Example XII], for which the pIC50 is 5.82.

Consider `CC[C@H](C)[C@H](NC(=O)[C@@H](NC[C@H](CC(C)C)NC(=O)[C@H](Cc1c[nH]cn1)NC(=O)[C@H](Cc1ccccc1)NC(=O)[C@@H]1CCCN1C(C)=O)C(C)C)C(=O)N[C@@H](Cc1c[nH]cn1)C(=O)N[C@H](CCCCN)C(=O)O` [XXXVII], for which the IC50 under setting [2] came to 0.6 µM.

Regarding `CC[C@H](C)[C@H](NC(=O)[C@@H](NC[C@H](CC(C)C)NC(=O)[C@H](Cc1c[nH]cn1)NC(=O)[C@H](Cc1ccccc1)NC(=O)[C@@H]1CCCN1C(=O)[C@@H](N)Cc1c[nH]cn1)C(C)C)C(=O)N[C@@H](Cc1ccc(O)cc1)C(=O)O` [Example X], the pIC50 was 6.70.

As for `CC[C@H](C)[C@H](NC(=O)[C@@H](NC[C@H](CC(C)C)NC(=O)[C@H](Cc1c[nH]cn1)NC(=O)[C@H](Cc1ccccc1)NC(=O)[C@@H]1CCCN1C(=O)[C@H](N)Cc1c[nH]cn1)C(C)C)C(=O)N[C@@H](Cc1c[nH]cn1)C(=O)N[C@H](CCCCN)C(=O)O` [XXXIX], the IC50 under setting [2] was found to be 0.2 µM.

Take `CC[C@H](C)[C@H](NC(=O)CC[C@H](O)[C@H](CC(C)C)NC(=O)[C@H](Cc1c[nH]cn1)NC(=O)[C@H](Cc1ccccc1)NC(=O)OC(C)(C)C)C(=O)N[C@@H](Cc1c[nH]cn1)C(=O)O` [Example XLVIII] (Boc-FH[X4]IH-OH): the IC50 under setting [1] came to 0.3 µM.

Take `CC[C@H](C)[C@H](NC(=O)[C@@H](NC[C@H](CC(C)C)NC(=O)[C@H](Cc1c[nH]cn1)NC(=O)[C@H](Cc1ccccc1)NC(=O)[C@@H]1CCCN1C(=O)[C@H](Cc1c[nH]cn1)NC(=O)[C@@H]1CCCN1)C(C)C)C(=O)N[C@@H](Cc1ccc(O)cc1)C(=O)O` [XXX] (H-PHPFH-X3): the IC50 under setting [2] is 0.048 µM.

The values above are taken from patent US4713445A, “Renin inhibitors and treatments using them” (priority 1983, dated 1987).
